Data as given in ChEMBL document CHEMBL4825708 (J Med Chem, 2021).
≈ marks a conversion by molar mass, not a printed value.

Experiments:
[1] = Volume of distribution at steady state in Beagle dog at 1 mg/kg, iv or po measured after 0.033 to 24 hrs by LC/MS/MS analysis; conditions: in vivo
[2] = target: T1, Estrogen receptor (Homo sapiens, UniProt P03372)
T1 sequence (P03372 whole entry): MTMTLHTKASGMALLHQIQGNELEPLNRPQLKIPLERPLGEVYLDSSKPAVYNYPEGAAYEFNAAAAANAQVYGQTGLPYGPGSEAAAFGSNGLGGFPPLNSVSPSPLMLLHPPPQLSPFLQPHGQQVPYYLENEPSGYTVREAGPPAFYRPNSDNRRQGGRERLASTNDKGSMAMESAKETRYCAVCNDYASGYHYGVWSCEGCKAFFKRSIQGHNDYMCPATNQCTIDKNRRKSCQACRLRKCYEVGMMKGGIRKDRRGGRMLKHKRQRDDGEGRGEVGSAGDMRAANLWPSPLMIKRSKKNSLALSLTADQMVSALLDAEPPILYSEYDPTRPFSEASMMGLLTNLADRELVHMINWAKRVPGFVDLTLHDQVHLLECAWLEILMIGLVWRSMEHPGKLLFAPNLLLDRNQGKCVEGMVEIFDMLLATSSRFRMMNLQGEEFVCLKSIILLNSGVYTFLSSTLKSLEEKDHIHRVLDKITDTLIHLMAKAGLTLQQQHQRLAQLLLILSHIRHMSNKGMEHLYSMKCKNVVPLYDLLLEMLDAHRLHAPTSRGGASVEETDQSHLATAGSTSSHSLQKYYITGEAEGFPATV
Description: Antagonist activity at estrogen receptor in human T47D cells incubated for 18 hrs by ultra high sensitivity luminescence reporter gene assay

[3] = target: T2, CYP1A2 (Homo sapiens, UniProt P05177); test: Time dependent inhibition of CYP1A2 in human liver microsomes using phenacetin as substrate incubated for 30 mins by LC-MS/MS analysis
T2 sequence (P05177 whole entry): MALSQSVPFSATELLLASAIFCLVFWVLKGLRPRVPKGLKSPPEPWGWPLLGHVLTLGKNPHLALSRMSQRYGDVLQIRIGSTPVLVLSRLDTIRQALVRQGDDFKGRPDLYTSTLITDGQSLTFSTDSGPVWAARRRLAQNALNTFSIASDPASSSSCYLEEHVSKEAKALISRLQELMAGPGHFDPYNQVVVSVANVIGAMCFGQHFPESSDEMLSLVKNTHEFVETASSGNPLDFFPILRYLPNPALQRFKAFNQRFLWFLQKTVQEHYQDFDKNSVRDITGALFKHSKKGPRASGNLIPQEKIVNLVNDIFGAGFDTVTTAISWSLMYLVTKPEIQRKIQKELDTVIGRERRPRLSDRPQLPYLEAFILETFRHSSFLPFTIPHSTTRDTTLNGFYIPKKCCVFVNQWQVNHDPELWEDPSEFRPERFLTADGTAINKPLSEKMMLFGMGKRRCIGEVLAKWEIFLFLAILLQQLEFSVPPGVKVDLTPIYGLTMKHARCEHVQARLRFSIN

[4] = Volume of distribution at steady state in cynomolgus monkey at 1 mg/kg, iv or po measured after 0.033 to 24 hrs by LC/MS/MS analysis; conditions: in vivo
[5] = target: CYP2D6 (Homo sapiens, UniProt P10635); test: Time dependent inhibition of CYP2D6 in human liver microsomes using dextromethorphan as substrate incubated for 10 mins by LC-MS/MS analysis
[6] = in vivo; conditions: beagle, dog, po, 1 mg/kg
[7] = in vitro; conditions: human, microsomes
[8] = target: Cytochrome P450 2D6 (Homo sapiens, UniProt P10635); test: Reversible inhibition of CYP2D6 in human liver microsomes using dextromethorphan as substrate preincubated for 10 mins followed by NADPH addition by LC/MS/MS analysis
[9] = in vivo; conditions: beagle, dog, iv, 1 mg/kg
[10] = in vitro; conditions: mouse, mouse liver microsomes
[11] = target: T1, Estrogen receptor; conditions: mcf7
Description: Induction of estrogen receptor degradation in human MCF7 cells incubated for 4 hrs by Alexafluor -488 conjugate anti-mouse IgG staining based fluorescence method

[12] = Half life in cynomolgus monkey at 1 mg/kg, iv or po measured after 0.033 to 24 hrs by LC/MS/MS analysis; conditions: in vivo
[13] = in vivo; conditions: cynomolgus monkey, po, 100 mg/kg
[14] = target: CYP2C9 (Homo sapiens, UniProt P11712); test: Time dependent inhibition of CYP2C9 in human liver microsomes using s-warfarin as substrate incubated for 30 mins by LC-MS/MS analysis
[15] = Volume of distribution at steady state in Sprague-Dawley rat at 1 mg/kg, iv or po measured after 0.033 to 24 hrs by LC/MS/MS analysis; conditions: in vivo
[16] = in vitro; conditions: rat, hepatocytes
[17] = target: T3, CYP3A4 (Homo sapiens, UniProt P08684); test: Time dependent inhibition of CYP3A4 in human liver microsomes using testosterone as substrate incubated for 10 mins by LC-MS/MS analysis
[18] = in vivo; conditions: cynomolgus monkey, iv, 1 mg/kg
[19] = in vitro; conditions: rat, microsomes
[20] = in vitro; conditions: cynomolgus monkey, cynomolgus monkey hepatocytes
[21] = in vivo; conditions: Sprague-Dawley, rat, iv, 1 mg/kg
[22] = in vivo; conditions: Sprague-Dawley, rat, po, 1 mg/kg
[23] = target: CYP2C19 (Homo sapiens, UniProt P33261); test: Time dependent inhibition of CYP2C19 in human liver microsomes using (s)-mephenytoin as substrate incubated for 40 mins by LC-MS/MS analysis
[24] = Half life in Sprague-Dawley rat at 1 mg/kg, iv or po measured after 0.033 to 24 hrs by LC/MS/MS analysis; conditions: in vivo
[25] = system: MCF7; test: cells; conditions: Homo sapiens, MCF7, 72 h
Description: Antiproliferative activity against human MCF-7 cells incubated for 72 hrs by Cell-titer Glo assay

[26] = in vivo; conditions: Sprague-Dawley, rat, po, 100 mg/kg
[27] = in vitro; conditions: cynomolgus monkey, cynomolgus monkey liver microsomes
[28] = Kinetic solubility of compound at pH 7.4; conditions: buffer
[29] = target: T3, CYP3A4; test: Time dependent inhibition of CYP3A4 in human liver microsomes using midazolam as substrate incubated for 10 mins by LC-MS/MS analysis
[30] = in vitro; conditions: dog, dog liver microsomes
[31] = target: Cytochrome P450 2C19 (Homo sapiens, UniProt P33261); test: Reversible inhibition of CYP2C19 in human liver microsomes using (S)-Mephenytoin as substrate preincubated for 40 mins followed by NADPH addition by LC/MS/MS analysis
[32] = target: Voltage-gated inwardly rectifying potassium channel KCNH2 (Homo sapiens, UniProt Q12809); test: Inhibition of human ERG expressed in HEK293 cells incubated for 5 mins by patch clamp assay
[33] = in vitro; conditions: human, hepatocytes
[34] = in vivo; conditions: cynomolgus monkey, po, 1 mg/kg
[35] = target: Cav1.2 (Homo sapiens, UniProt Q13936); test: Inhibition of human Cav1.2 expressed in CHO cells at 10 uM by QPatch HT assay; conditions: CHO cells expressing human Cav1.2
[36] = Distribution coefficient, logD of the compound at pH 7.4; conditions: octanol/water
[37] = target: Nav1.5 (Homo sapiens, UniProt Q14524); test: Inhibition of human Nav1.5 expressed in CHO cells at 10 uM by QPatch HT assay; conditions: CHO cells expressing human Nav1.5
[38] = Apparent permeability in MDCK cells across apical to basolateral side at 10 uM incubated for 3 hrs by LC-MS/MS analysis; conditions: dog
[39] = in vitro; conditions: mouse, mouse hepatocytes
[40] = in vitro; conditions: dog, dog hepatocytes
[41] = Half life in Beagle dog at 1 mg/kg, iv or po measured after 0.033 to 24 hrs by LC/MS/MS analysis; conditions: in vivo
[42] = target: Cytochrome P450 2C9 (Homo sapiens, UniProt P11712); test: Reversible inhibition of CYP2C9 in human liver microsomes using (s)-warfarin as substrate preincubated for 30 mins followed by NADPH addition by LC/MS/MS analysis

T3 sequence (P08684 whole entry): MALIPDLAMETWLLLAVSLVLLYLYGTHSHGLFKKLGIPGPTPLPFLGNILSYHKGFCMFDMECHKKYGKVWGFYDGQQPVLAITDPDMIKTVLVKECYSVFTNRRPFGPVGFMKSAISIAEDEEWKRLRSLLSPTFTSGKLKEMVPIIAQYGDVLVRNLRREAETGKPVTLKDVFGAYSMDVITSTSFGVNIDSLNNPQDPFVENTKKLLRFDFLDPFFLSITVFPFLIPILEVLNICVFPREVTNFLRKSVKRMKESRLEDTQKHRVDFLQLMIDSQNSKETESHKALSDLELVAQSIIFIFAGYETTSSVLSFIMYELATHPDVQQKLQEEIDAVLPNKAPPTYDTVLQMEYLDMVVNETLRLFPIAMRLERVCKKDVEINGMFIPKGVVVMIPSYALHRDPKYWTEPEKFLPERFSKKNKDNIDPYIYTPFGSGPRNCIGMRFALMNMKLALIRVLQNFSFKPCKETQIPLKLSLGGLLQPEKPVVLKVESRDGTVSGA
Voltage-gated inwardly rectifying potassium channel KCNH2, sequence (Q12809 whole entry): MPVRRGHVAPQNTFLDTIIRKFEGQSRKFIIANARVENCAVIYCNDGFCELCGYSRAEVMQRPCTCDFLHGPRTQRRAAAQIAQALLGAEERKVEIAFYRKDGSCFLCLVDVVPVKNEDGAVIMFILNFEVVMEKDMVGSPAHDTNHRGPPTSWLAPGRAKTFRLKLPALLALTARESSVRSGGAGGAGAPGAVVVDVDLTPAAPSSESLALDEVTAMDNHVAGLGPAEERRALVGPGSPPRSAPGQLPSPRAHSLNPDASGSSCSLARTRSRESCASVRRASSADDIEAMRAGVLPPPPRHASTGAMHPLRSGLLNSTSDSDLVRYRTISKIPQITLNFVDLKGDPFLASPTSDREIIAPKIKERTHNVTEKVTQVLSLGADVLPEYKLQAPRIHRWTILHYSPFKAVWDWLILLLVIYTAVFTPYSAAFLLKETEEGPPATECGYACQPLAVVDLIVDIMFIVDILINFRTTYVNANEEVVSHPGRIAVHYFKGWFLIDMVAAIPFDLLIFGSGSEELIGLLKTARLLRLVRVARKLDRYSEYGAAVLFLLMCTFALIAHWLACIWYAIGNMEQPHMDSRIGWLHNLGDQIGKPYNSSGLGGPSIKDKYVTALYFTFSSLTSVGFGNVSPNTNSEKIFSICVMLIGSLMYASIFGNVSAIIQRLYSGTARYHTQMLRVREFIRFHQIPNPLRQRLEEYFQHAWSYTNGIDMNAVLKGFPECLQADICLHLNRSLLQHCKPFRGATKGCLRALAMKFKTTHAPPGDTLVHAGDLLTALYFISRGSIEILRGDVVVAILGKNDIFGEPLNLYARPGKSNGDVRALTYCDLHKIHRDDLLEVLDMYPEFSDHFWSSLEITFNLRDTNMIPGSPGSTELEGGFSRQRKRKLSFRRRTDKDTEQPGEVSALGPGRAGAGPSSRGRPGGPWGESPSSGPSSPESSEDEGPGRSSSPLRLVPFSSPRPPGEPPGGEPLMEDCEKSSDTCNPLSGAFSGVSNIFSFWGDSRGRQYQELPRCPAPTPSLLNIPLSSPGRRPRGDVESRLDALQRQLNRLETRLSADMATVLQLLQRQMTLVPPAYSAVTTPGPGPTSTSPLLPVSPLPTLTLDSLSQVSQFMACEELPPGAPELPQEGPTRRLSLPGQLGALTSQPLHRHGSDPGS
Nav1.5, sequence (Q14524 whole entry): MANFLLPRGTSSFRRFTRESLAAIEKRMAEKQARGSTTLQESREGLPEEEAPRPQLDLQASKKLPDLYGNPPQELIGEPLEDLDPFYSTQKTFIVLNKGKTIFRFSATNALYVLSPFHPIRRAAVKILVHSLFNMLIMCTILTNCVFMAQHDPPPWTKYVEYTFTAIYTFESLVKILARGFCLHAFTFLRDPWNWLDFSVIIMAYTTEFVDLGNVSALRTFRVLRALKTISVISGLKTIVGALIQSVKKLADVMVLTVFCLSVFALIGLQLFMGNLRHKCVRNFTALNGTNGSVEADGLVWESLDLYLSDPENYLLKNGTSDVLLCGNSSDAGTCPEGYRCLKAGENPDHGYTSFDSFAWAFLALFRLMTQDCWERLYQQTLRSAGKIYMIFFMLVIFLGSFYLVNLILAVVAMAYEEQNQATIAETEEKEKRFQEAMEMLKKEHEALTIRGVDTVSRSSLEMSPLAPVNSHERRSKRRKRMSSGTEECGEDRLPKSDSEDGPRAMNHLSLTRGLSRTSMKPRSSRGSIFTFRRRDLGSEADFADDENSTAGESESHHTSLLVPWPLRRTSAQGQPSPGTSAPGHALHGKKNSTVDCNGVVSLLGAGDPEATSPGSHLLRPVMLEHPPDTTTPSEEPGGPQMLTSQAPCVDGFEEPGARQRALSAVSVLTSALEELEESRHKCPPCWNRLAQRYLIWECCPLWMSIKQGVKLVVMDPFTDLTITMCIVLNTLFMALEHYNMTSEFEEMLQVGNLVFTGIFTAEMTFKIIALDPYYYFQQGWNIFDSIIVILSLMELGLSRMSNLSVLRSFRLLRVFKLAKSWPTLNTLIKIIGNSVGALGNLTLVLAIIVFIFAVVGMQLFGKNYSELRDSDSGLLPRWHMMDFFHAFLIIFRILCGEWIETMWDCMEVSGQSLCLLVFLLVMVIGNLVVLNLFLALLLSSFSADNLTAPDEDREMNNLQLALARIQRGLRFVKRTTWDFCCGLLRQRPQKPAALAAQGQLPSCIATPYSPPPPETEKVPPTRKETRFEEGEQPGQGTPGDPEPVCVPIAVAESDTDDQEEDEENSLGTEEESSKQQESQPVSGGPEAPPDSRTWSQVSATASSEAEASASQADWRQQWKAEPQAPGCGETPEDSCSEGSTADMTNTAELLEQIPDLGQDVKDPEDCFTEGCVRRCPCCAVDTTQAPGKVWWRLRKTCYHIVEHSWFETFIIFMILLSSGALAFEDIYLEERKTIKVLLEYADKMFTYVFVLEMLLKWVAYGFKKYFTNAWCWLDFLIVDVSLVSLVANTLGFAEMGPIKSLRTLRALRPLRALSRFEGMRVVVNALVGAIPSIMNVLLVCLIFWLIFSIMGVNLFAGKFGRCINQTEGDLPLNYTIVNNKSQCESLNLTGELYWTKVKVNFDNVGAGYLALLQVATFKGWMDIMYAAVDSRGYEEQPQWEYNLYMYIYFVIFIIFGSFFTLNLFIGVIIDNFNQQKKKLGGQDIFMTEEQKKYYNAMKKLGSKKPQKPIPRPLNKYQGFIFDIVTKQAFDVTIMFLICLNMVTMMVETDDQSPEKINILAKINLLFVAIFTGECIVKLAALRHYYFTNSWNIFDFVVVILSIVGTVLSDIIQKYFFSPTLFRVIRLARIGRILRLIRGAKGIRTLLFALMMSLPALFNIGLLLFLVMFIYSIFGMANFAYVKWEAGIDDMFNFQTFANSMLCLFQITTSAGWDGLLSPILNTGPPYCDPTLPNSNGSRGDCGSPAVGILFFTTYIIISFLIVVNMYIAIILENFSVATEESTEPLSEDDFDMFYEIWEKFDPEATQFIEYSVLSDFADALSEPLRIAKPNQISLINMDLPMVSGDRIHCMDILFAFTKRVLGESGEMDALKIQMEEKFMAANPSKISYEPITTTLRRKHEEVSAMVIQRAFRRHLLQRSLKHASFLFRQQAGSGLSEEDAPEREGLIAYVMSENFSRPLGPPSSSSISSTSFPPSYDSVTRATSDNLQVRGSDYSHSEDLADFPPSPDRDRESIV
Cytochrome P450 2D6, sequence (P10635 whole entry): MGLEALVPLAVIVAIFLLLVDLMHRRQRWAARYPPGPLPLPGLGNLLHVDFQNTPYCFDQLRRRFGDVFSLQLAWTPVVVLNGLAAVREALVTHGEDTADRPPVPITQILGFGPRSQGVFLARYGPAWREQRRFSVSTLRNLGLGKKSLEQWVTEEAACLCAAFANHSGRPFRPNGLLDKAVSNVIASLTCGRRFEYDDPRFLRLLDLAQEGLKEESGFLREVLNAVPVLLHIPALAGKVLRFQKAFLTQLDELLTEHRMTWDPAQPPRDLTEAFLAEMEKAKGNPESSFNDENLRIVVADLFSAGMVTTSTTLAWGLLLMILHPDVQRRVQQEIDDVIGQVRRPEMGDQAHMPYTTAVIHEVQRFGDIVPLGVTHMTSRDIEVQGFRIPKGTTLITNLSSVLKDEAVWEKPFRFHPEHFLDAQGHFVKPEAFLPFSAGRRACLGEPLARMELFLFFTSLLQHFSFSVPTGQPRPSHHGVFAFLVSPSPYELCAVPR
CYP2D6, sequence (P10635 whole entry): as above
CYP2C19, sequence (P33261 whole entry): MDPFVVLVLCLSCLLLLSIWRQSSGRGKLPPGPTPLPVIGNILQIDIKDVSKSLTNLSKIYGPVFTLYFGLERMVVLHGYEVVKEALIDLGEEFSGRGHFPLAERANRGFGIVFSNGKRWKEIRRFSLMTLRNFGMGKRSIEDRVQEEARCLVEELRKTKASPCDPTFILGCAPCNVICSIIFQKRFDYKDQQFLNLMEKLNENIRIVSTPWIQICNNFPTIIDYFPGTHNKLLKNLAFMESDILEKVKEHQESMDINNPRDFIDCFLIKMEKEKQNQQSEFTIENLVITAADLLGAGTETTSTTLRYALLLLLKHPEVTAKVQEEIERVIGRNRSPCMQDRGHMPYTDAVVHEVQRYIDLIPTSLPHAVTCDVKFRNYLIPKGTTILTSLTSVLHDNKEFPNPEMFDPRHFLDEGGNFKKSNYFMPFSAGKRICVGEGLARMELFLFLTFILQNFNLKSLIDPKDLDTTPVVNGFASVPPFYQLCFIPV

For C[C@@H]1Cc2c([nH]c3ccccc23)[C@@H](c2c(F)cc(NC3CN(CCCF)C3)cc2F)N1CC(F)(F)CO [GIREDESTRANT], the Vd [1] was 5.1 L/kg, the IC50 [2] was 0.05 nM and the inhibition at 0.5 h [3] was 1%. The Vd [4] was 9.4 L/kg, the inhibition at 10 min [5] was 8.1% and the bioavailability [6] was 55%. For the same molecule, the CLint scaled at 1 h, 1 µM [7] was 11 mL/min/kg, the IC50 [8] was > 10000 nM and the clearance [9] was 3 mL/min/kg. The CLint scaled at 1 h, 1 µM [10] was 52 mL/min/kg, the DC50 [11] was 0.03 nM and the half-life [12] was 7.3 h. It also gave a bioavailability [13] of 29%, an inhibition at 0.5 h [14] of 19% and a Vd [15] of 15 L/kg. For the same molecule, the CLint scaled at 1 h [16] was 23 mL/min/kg, the inhibition at 10 min [17] was -4% and the clearance [18] was 19 mL/min/kg. For the same molecule, the CLint scaled at 1 h, 1 µM [19] was 19 mL/min/kg, the CLint scaled at 1 h [20] was 31 mL/min/kg and the clearance [21] was 21 mL/min/kg. For the same molecule, the bioavailability [22] was 41%, the inhibition at 40 min [23] was 1.2% and the half-life [24] was 8 h. For the same molecule, the EC50 [25] was 0.4 nM, the bioavailability [26] was 65% and the CLint scaled at 1 h, 1 µM [27] was 22 mL/min/kg. It also gave a solubility kinetic [28] of 135 µM (≈ 70.5 µg/mL), an inhibition at 10 min [29] of -0.9% and a CLint scaled at 1 h, 1 µM [30] of 13 mL/min/kg. The IC50 [31] was > 10000 nM, the IC50 [32] was 6100 nM and the CLint scaled at 1 h [33] was 11 mL/min/kg. It also gave a bioavailability [34] of 17%, an inhibition at 10 µM [35] of 15.7% and a logD [36] of 2.9. For the same molecule, the inhibition at 10 µM [37] was 16.7%, the Papp A→B at 3 h, 10 µM [38] was 3 ×10⁻⁶ cm/s and the CLint scaled at 1 h [39] was 33 mL/min/kg. The CLint scaled at 1 h [40] was < 7.8 mL/min/kg, the half-life [41] was 24 h and the IC50 [42] was > 10000 nM.
